Assay results as given in patent publication US10800792B2, “Inhibitors of Bruton's tyrosine kinase and method of their use” (JANSSEN PHARMACEUTICA NV, priority 2015, dated 2020).

Biological target: unphosphorylated-BTK kinase domain (UP-BTK), GST-tagged human BTK (389-659aa) (Homo sapiens (Human), UniProt Q06187)
Assay: BTK kinase Lanthascreen binding assay
Settings: pIC50 = negative log of the IC50 in molar
How it was run: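 Measures how well compounds compete with a fluorescence-labelled tracer for binding to BTK in its unphosphorylated state. IC50 values were fitted and expressed as pIC50 (negative logarithm of the molar IC50).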

[1] = 60 minutes incubation, 50 nM Tracer 236
[2] = unphosphorylated-BTK kinase domain, 50 nM Tracer 236, 60 minutes

Chain of unphosphorylated-BTK kinase domain (UP-BTK), GST-tagged human BTK (389-659aa) (Q06187 389-659): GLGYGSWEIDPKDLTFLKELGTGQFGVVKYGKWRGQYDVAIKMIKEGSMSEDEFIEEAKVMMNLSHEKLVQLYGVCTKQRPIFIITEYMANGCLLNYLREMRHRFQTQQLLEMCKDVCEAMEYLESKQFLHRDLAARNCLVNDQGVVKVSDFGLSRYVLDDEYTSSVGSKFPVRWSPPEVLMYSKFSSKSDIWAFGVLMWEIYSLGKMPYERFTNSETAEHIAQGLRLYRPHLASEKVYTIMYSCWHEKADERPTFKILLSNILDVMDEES

BTK_I_binding pIC50 [1] | BTK_I_binding pIC50 [2] | Compound
6.3 |  | Cc1cc(Oc2ccccc2)ccc1N1C(=O)Nc2c(C(=O)N[C@H]3CN(C)CC(F)(F)C3)sc3nccc1c23 [Example 272, (R)—N-(5,5-Difluoro-1-methylpiperidin-3-yl)-5-(2-methyl-4-phenoxyphenyl)-4-oxo-4,5-dihydro-3H-1-thia-3,5,8-triazaacenaphthylene-2-carboxamide]
6.3 |  | Cc1cc(Oc2ccccc2)ccc1N1C(=O)Nc2c(C(=O)NC3CN(C(C)C)C3)sc3nccc1c23 [Example 273, N-(1-Isopropylazetidin-3-yl)-5-(2-methyl-4-phenoxyphenyl)-4-oxo-4,5-dihydro-3H-1-thia-3,5,8-triazaacenaphthylene-2-carboxamide]
6.3 |  | Cc1cc(Oc2ccccc2)ccc1N1C(=O)Nc2c(C(=O)N[C@@H]3CCCN(C(=O)/C=C/C(C)(C)C)C3)sc3nccc1c23 [Example 274, (R,E)-N-(1-(4,4-Dimethylpent-2-enoyl)piperidin-3-yl)-5-(2-methyl-4-phenoxyphenyl)-4-oxo-4,5-dihydro-3H-1-thia-3,5,8-triazaacenaphthylene-2-carboxamide]
6.3 |  | Cc1cc(Oc2ccccc2)ccc1N1C(=O)Nc2c(C(=O)NCCN3CCOCC3)sc3nccc1c23 [Example 275, 5-(2-Methyl-4-phenoxyphenyl)-N-(2-morpholinoethyl)-4-oxo-4,5-dihydro-3H-1-thia-3,5,8-triazaacenaphthylene-2-carboxamide]
6.3 |  | Cc1cc(Oc2ccccc2)ccc1N1C(=O)Nc2c(C(=O)NC[C@H]3CCCN3)sc3nccc1c23 [Example 276, (R)-5-(2-Methyl-4-phenoxyphenyl)-4-oxo-N-(pyrrolidin-2-ylmethyl)-4,5-dihydro-3H-1-thia-3,5,8-triazaacenaphthylene-2-carboxamide]
6.2 |  | C/C=C(\Cl)C(=O)N1CCC[C@@H](NC(=O)c2sc3nccc4c3c2NC(=O)N4c2ccc(Oc3ccccc3)cc2C)C1 [Example 277, (R,Z)—N-(1-(2-Chlorobut-2-enoyl)piperidin-3-yl)-5-(2-methyl-4-phenoxyphenyl)-4-oxo-4,5-dihydro-3H-1-thia-3,5,8-triazaacenaphthylene-2-carboxamide]
6.2 |  | C=CC(=O)N1CCC[C@@H](NC(=O)c2sc3nccc4c3c2NC(=O)N4c2ccc(Oc3ccccc3)cc2C(F)(F)F)C1 [Example 278, (R)—N-(1-Acryloylpiperidin-3-yl)-4-oxo-5-(4-phenoxy-2-(trifluoromethyl)phenyl)-4,5-dihydro-3H-1-thia-3,5,8-triazaacenaphthylene-2-carboxamide]
6.2 |  | C=CC(=O)N1CCC[C@@H](NC(=O)c2sc3nccc4c3c2NC(=O)N4c2cccc(C)c2)C1 [Example 279, (R)—N-(1-Acryloylpiperidin-3-yl)-4-oxo-5-(m-tolyl)-4,5-dihydro-3H-1-thia-3,5,8-triazaacenaphthylene-2-carboxamide]
5.8 |  | O=C(N[C@@H]1CCCNC1)c1sc2nccc3c2c1NC(=O)N3c1ccc(Cl)c(C(F)(F)F)c1 [Example 280, (R)-5-(4-Chloro-3-(trifluoromethyl)phenyl)-4-oxo-N-(piperidin-3-yl)-4,5-dihydro-3H-1-thia-3,5,8-triazaacenaphthylene-2-carboxamide]
6.2 |  | Cc1c(Oc2ccccc2)ccc(N2C(=O)Nc3c(C(=O)N[C@@H]4CCCN(C)C4)sc4nccc2c34)c1C [Example 281, (R)-5-(2,3-Dimethyl-4-phenoxyphenyl)-N-(1-methylpiperidin-3-yl)-4-oxo-4,5-dihydro-3H-1-thia-3,5,8-triazaacenaphthylene-2-carboxamide]
 | 6.2 | Cc1cc(Oc2ccccc2)ccc1N1C(=O)Nc2c(C(=O)NCC3CCN(C)C3)sc3nccc1c23 (stereo not drawn) [Example 282, 5-(2-Methyl-4-phenoxyphenyl)-N-((1-methylpyrrolidin-3-yl)methyl)-4-oxo-4,5-dihydro-3H-1-thia-3,5,8-triazaacenaphthylene-2-carboxamide]
 | 6.2 | Cc1cc(Oc2ccccc2OC(C)C)ccc1N1C(=O)Nc2c(C(=O)N[C@@H]3CCCN(C)C3)sc3nccc1c23 [Example 283, (R)-5-(4-(2-Isopropoxyphenoxy)-2-methylphenyl)-N-(1-methylpiperidin-3-yl)-4-oxo-4,5-dihydro-3H-1-thia-3,5,8-triazaacenaphthylene-2-carboxamide]
 | 6.2 | Cc1cc(Oc2ccccc2)ccc1N1C(=O)Nc2c(C(=O)NC[C@H]3CCCN3C)sc3nccc1c23 [Example 285, (R)-5-(2-Methyl-4-phenoxyphenyl)-N-((1-methylpyrrolidin-2-yl)methyl)-4-oxo-4,5-dihydro-3H-1-thia-3,5,8-triazaacenaphthylene-2-carboxamide]
 | 6.2 | Cc1cc(Oc2cc(F)cc(F)c2)ccc1N1C(=O)Nc2c(C(=O)N[C@@H]3CCCN(C)C3)sc3nccc1c23 [Example 286, (R)-5-(4-(3,5-Difluorophenoxy)-2-methylphenyl)-N-(1-methylpiperidin-3-yl)-4-oxo-4,5-dihydro-3H-1-thia-3,5,8-triazaacenaphthylene-2-carboxamide]
 | 6.2 | C=CC(=O)N1CCC[C@@H](NC(=O)c2sc3nccc4c3c2NC(=O)N4c2cccc(C(F)(F)F)c2)C1 [Example 288, (R)—N-(1-Acryloylpiperidin-3-yl)-4-oxo-5-(3-(trifluoromethyl)phenyl)-4,5-dihydro-3H-1-thia-3,5,8-triazaacenaphthylene-2-carboxamide]
 | 6.2 | Cc1ccc(Oc2ccc(N3C(=O)Nc4c(C(=O)N[C@@H]5CCCN(C)C5)sc5nccc3c45)c(C)c2)cc1 [Example 290, (R)-5-(2-Methyl-4-(p-tolyloxy)phenyl)-N-(1-methylpiperidin-3-yl)-4-oxo-4,5-dihydro-3H-1-thia-3,5,8-triazaacenaphthylene-2-carboxamide]
 | 6.1 | Cc1cc(Oc2ccccc2)ccc1N1C(=O)Nc2c(C(=O)NCCN3CCOC[C@@H]3C)sc3nccc1c23 [Example 291, (S)-5-(2-Methyl-4-phenoxyphenyl)-N-(2-(3-methylmorpholino)ethyl)-4-oxo-4,5-dihydro-3H-1-thia-3,5,8-triazaacenaphthylene-2-carboxamide]
 | 6.1 | Cc1cc(Oc2cccnc2)ccc1N1C(=O)Nc2c(C(=O)N[C@@H]3CCCN(C)C3)sc3nccc1c23 [Example 293, (R)-5-(2-Methyl-4-(pyridin-3-yloxy)phenyl)-N-(1-methylpiperidin-3-yl)-4-oxo-4,5-dihydro-3H-1-thia-3,5,8-triazaacenaphthylene-2-carboxamide]
 | 6.1 | C=CC(=O)N1CCC[C@@H](NC(=O)c2sc3nccc4c3c2NC(=O)N4c2cccc(Cl)c2)C1 [Example 294, (R)—N-(1-Acryloylpiperidin-3-yl)-5-(3-chlorophenyl)-4-oxo-4,5-dihydro-3H-1-thia-3,5,8-triazaacenaphthylene-2-carboxamide]
 | 6.1 | Cc1cc(Oc2ccc(F)cc2)ccc1N1C(=O)Nc2c(C(=O)N[C@@H]3CCCN(C)C3)sc3nccc1c23 [Example 295, (R)-5-(4-(4-Fluorophenoxy)-2-methylphenyl)-N-(1-methylpiperidin-3-yl)-4-oxo-4,5-dihydro-3H-1-thia-3,5,8-triazaacenaphthylene-2-carboxamide]
 | 6.1 | Cc1cc(Oc2ccccc2)ccc1N1C(=O)Nc2c(C(=O)NCCN3CCOC[C@H]3C)sc3nccc1c23 [Example 296, (R)-5-(2-Methyl-4-phenoxyphenyl)-N-(2-(3-methylmorpholino)ethyl)-4-oxo-4,5-dihydro-3H-1-thia-3,5,8-triazaacenaphthylene-2-carboxamide]
 | 6.1 | Cc1cc(OC2CCCC2)ccc1N1C(=O)Nc2c(C(=O)N[C@@H]3CCCN(C)C3)sc3nccc1c23 [Example 297, (R)-5-(4-(Cyclopentyloxy)-2-methylphenyl)-N-(1-methylpiperidin-3-yl)-4-oxo-4,5-dihydro-3H-1-thia-3,5,8-triazaacenaphthylene-2-carboxamide]
 | 6.1 | Cc1cc(Oc2ccccc2)ccc1N1C(=O)Nc2c(C(=O)NCCC3CCCN3C)sc3nccc1c23 (stereo not drawn) [Example 298, 5-(2-Methyl-4-phenoxyphenyl)-N-(2-(1-methylpyrrolidin-2-yl)ethyl)-4-oxo-4,5-dihydro-3H-1-thia-3,5,8-triazaacenaphthylene-2-carboxamide]
 | 6.1 | C=CC(=O)N1CC[C@@H](NC(=O)c2sc3nccc4c3c2NC(=O)N4c2ccc(OC)cc2C)C1 [Example 299, (R)—N-(1-Acryloylpyrrolidin-3-yl)-5-(4-methoxy-2-methylphenyl)-4-oxo-4,5-dihydro-3H-1-thia-3,5,8-triazaacenaphthylene-2-carboxamide]
 | 6.0 | C=CC(=O)N1CC[C@@H](NC(=O)c2sc3nccc4c3c2NC(=O)N4c2ccccc2F)C1 [Example 301, (R)—N-(1-Acryloylpyrrolidin-3-yl)-5-(2-fluorophenyl)-4-oxo-4,5-dihydro-3H-1-thia-3,5,8-triazaacenaphthylene-2-carboxamide]
 | 6.0 | Cc1cc(Oc2ccc(F)cc2F)ccc1N1C(=O)Nc2c(C(=O)N[C@@H]3CCCN(C)C3)sc3nccc1c23 [Example 302, (R)-5-(4-(2,4-Difluorophenoxy)-2-methylphenyl)-N-(1-methylpiperidin-3-yl)-4-oxo-4,5-dihydro-3H-1-thia-3,5,8-triazaacenaphthylene-2-carboxamide]

Compound | BTK_I_binding pIC50 [1] | BTK_I_binding pIC50 [2]
Cc1cc(OC2CCC2)ccc1N1C(=O)Nc2c(C(=O)N[C@@H]3CCCN(C)C3)sc3nccc1c23 [Example 284, (R)-5-(4-Cyclobutoxy-2-methylphenyl)-N-(1-methylpiperidin-3-yl)-4-oxo-4,5-dihydro-3H-1-thia-3,5,8-triazaacenaphthylene-2-carboxamide] |  | 6.2
